Measurements taken from the supplement of paper PMC11451515.

Tests used:
Assay in all cases: AUC of viability dose-response curve (% viability x log10 dose units); higher = less sensitive
Settings in all cases: 48 h
NOMO1 = system: NOMO1
Procedure, shortened: (§1)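 Leukemia cells adapted to each medium (500 or 1000 cells/well, 1536-well plates) were exposed to library compounds in DMSO for 48 h at 37°C at 11 threefold doses, 47 μM to 0.79 nM. Luminescence by CellTiter-Glo One was normalised per plate to DMSO and cell-free wells, then fitted with a four-parameter log-logistic curve on log10 dose. Curves above full viability were scaled and quality-control failures removed before area under the curve was integrated by trapezoidal rule.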

P12-Ichikawa = system: P12-Ichikawa
Procedure, shortened: as §1

SEM cells = system: SEM cells
Procedure, shortened: as §1

[1] = RPMI 5 mM glucose + 10% dialyzed FBS

| Compound | AUC of viability dose-response curve (NOMO1; HPLM + 10% dialyzed FBS) | AUC of viability dose-response curve (NOMO1; RPMI 5 mM glucose + 10% FBS) | AUC of viability dose-response curve (NOMO1; [1]) | AUC of viability dose-response curve (P12-Ichikawa; HPLM + 10% dialyzed FBS) | AUC of viability dose-response curve (P12-Ichikawa; RPMI 5 mM glucose + 10% FBS) | AUC of viability dose-response curve (P12-Ichikawa; [1]) | AUC of viability dose-response curve (SEM cells; HPLM + 10% dialyzed FBS) | AUC of viability dose-response curve (SEM cells; RPMI 5 mM glucose + 10% FBS) | AUC of viability dose-response curve (SEM cells; [1]) |
| --- | --- | --- | --- | --- | --- | --- | --- | --- | --- |
| CC(C)(C)C(=O)Oc1ccc2c(c1)nc(NC(=O)c1cccc([N+](=O)[O-])c1)n2CCCO | 461 | 459 | 458 | 460 | 437 | 445 | 448 | 452 | 418 |
| CC(C)n1c(/C=C/[C@H](O)C[C@H](O)CC(=O)O)c(-c2ccc(F)cc2)c2ccccc21 | 428 | 457 | 448 | 381 | 371 | 355 | 430 | 426 | 441 |
| CC(C)c1cnn2c(NCc3ccccc3)cc(N[C@@H](CO)[C@H](O)CO)nc12 | 297 | 303 | 302 | 327 | 313 | 320 | 299 | 290 | 299 |
| C[C@]12C[C@H](O)[C@H]3[C@@H](CC\C4=C\C(=O)\C=C/[C@]34C)[C@@H]1CC[C@]2(O)C(=O)CO | 446 | 456 | 449 | 372 | 353 | 349 | 389 | 380 | 359 |
